Seven molecules from ChEMBL document CHEMBL4814022, “Enantiomeric 4'-truncated 6'-fluoro-3-deazaneplanocin and its 3-bromo derivative: Synthesis and antiviral properties, including Ebola and Marburg” (Bioorg Med Chem Lett, 2021) can be followed below.

In data set [1] the test system is Influenza A virus. Nature of the data set: Antiviral activity against Influenza A virus (H1N1) infected in dog MDCK cells. It is filed as functional, organism-based.
Data set [2] concerns Measles morbillivirus. Description: Antiviral activity against Measles virus infected in African green monkey Vero cells by neutral red assay. The class given is functional, organism-based.
Data set [3] has as its system Murine norovirus. Nature of the data set: Antiviral activity against Murine norovirus infected in mouse RAW264.7 cells. It is filed as functional, organism-based.
Data set [4] deals with Junin virus. Nature of the data set: Antiviral activity against Junin virus infected in African green monkey Vero cells. It is filed as functional, organism-based. Particulars: Mammarenavirus juninense.
The test system of data set [5] is Pichinde virus. Nature of the data set: Antiviral activity against Pichinde virus infected in African green monkey Vero cells. The class given is functional, organism-based.
The test system of data set [6] is West Nile virus. Description: Antiviral activity against West Nile virus infected in African green monkey Vero 76 cells. It is filed as functional, organism-based.
A short description of data set [7]: Selectivity index, ratio of EC50 for antiviral activity against Measles virus infected in African green monkey Vero cells to CC50 for African green monkey Vero cells. It is filed as toxicity. Particulars: read-out: Ratio CC50/EC50.
The nature of data set [8]: Selectivity index, ratio of CC50 for African green monkey Vero cells to EC50 for antiviral activity against Ebola virus infected in African green monkey Vero cells. It is filed as toxicity. Particulars: read-out: Ratio CC50/EC50.
For data set [9], the system named is Enterovirus A71. Nature of the data set: Antiviral activity against Human enterovirus 71 infected in African green monkey Vero 76 cells. It is filed as functional, organism-based.
Data set [10] deals with Norovirus. Nature of the data set: Antiviral activity against Norovirus infected in human HG23 cells. It is filed as functional, organism-based.
The subject of data set [11] is Tacaribe virus. Nature of the data set: Antiviral activity against Tacaribe virus infected in African green monkey Vero cells. It is filed as functional, organism-based. Particulars: Mammarenavirus tacaribeense.
Data set [12] relates to Venezuelan equine encephalitis virus. Description: Antiviral activity against Venezuelan equine encephalitis virus infected in African green monkey Vero 76 cells. It is filed as functional, organism-based.
The subject of data set [13] is Hepatitis B virus. Description: Antiviral activity against Hepatitis B virus infected in human HepG2.2.15 cells. It is filed as functional, organism-based.
Data set [14] relates to Japanese encephalitis virus. Description: Antiviral activity against Japanese encephalitis virus infected in African green monkey Vero 76 cells. It is filed as functional, organism-based.
Data set [15] relates to Human adenovirus 5. Description: Antiviral activity against Human adenovirus 5 infected in human A549 cells. It is filed as functional, organism-based.
The nature of data set [16]: Selectivity index, ratio of EC50 for antiviral activity against Measles virus infected in African green monkey Vero cells by visible analysis to CC50 for African green monkey Vero cells. Particulars: read-out: Ratio CC50/EC50. The class given is toxicity.
Data set [17] can be described thus: Cytotoxicity against human HG23 cells. The class given is cell-based.
Data set [18] in a line: Selectivity index, ratio of EC50 for antiviral activity against Marburgvirus Angola infected in African green monkey Vero cells to CC50 for African green monkey Vero cells. It is filed as toxicity. Particulars: read-out: Ratio CC50/EC50.
The subject of data set [19] is Chikungunya virus. Description: Antiviral activity against Chikungunya virus infected in African green monkey Vero 76 cells. It is filed as functional, organism-based.
Data set [20] deals with Measles morbillivirus. Nature of the data set: Antiviral activity against Measles virus infected in African green monkey Vero cells by visible analysis. The class given is functional, organism-based.
Data set [21] relates to dengue virus type 2. Description: Antiviral activity against Dengue virus 2 infected in African green monkey Vero 76 cells. It is filed as functional, organism-based.
Data set [22] in a line: Selectivity index, ratio of EC50 for antiviral activity against Norovirus infected in human HG23 cells by visible analysis to CC50 for human HG23 cells. It is filed as toxicity, cell-based.
Data set [23] deals with Marburgvirus. Description: Antiviral activity against Marburgvirus Angola infected in African green monkey Vero cells. Particulars: Orthomarburgvirus. The class given is functional, organism-based.
A short description of data set [24]: Cytotoxicity against African green monkey Vero cells. The class given is cell-based. Particulars: chlorocebus sabaeus.
Data set [25] concerns Punta Toro virus. Description: Antiviral activity against Punta Toro virus infected in African green monkey Vero 76 cells. The class given is functional, organism-based.
The subject of data set [26] is Rift Valley fever virus. Description: Antiviral activity against Rift Valley fever virus infected in African green monkey Vero 76 cells. The class given is functional, organism-based.
Data set [27] deals with Yellow fever virus. Description: Antiviral activity against Yellow fever virus infected in African green monkey Vero 76 cells. It is filed as functional, organism-based.
Data set [28] deals with Zaire ebolavirus. Description: Antiviral activity against Zaire ebola virus infected in African green monkey Vero cells. The class given is functional, organism-based.
Data set [29] deals with Ebolavirus. Nature of the data set: Antiviral activity against Ebola virus infected in African green monkey Vero 76 cells. It is filed as functional, organism-based.
The subject of data set [30] is Measles morbillivirus. Nature of the data set: Antiviral activity against Measles virus infected in African green monkey Vero 76 cells. It is filed as functional, organism-based.
Data set [31] in a line: Selectivity index, ratio of EC50 for antiviral activity against BK polyomavirus infected in human HFF cells by visible analysis to CC50 for human HFF cells. It is filed as toxicity, cell-based. Particulars: read-out: Ratio CC50/EC50.
Data set [32] deals with Human alphaherpesvirus 1. Nature of the data set: Antiviral activity against HSV-1 infected in human HFF cells. It is filed as functional, organism-based.
Data set [33] concerns BK polyomavirus. Description: Antiviral activity against BK polyomavirus infected in human HFF cells. The class given is functional, organism-based. Particulars: Betapolyomavirus hominis.
Data set [34] deals with Lassa virus. Nature of the data set: Antiviral activity against Lassa virus infected in African green monkey Vero cells. The class given is functional, organism-based. Particulars: Mammarenavirus lassaense.
Data set [35] is described as follows: Cytotoxicity against human HFF cells. The class given is cell-based.

The source made the active and inactive calls. No cut-off for these calls is given here.

On to `Nc1nccc2c1ncn2[C@@H]1C(F)=C[C@@H](O)[C@H]1O`, for which the result in data set [1], in data set [3], in [4], in [5], in data set [6] and in data set [9] was inactive. The result in [11], in data set [12], in data set [13], in data set [14], in [15] and in data set [19] was inactive. The result in data set [21], in data set [25], in data set [26] and in [27] was inactive. Further, the EC50 worked out at 3.6 µM in data set [2]; 2.7 µM in [10]; 4.2 µM in data set [20]; 0.52 µM in data set [23]; 0.12 µM in [28]. Also, the selectivity ratio in data set [7] is 36; in [8], 117; in data set [16], 10; in data set [18] it was 27; in [22] (read-out: Ratio CC50/EC50) it was more than 37. Besides, the CC50 in [17] is more than 100 µM; in [24], not below 14 µM.

For `Nc1ncc(Br)c2c1ncn2[C@@H]1C(F)=C[C@@H](O)[C@H]1O`, the result in data set [1], in data set [3], in [4], in data set [5], in data set [6] and in data set [9] was inactive. Further, the outcome in [11], in data set [12], in data set [13], in data set [14], in data set [15] and in data set [19] was inactive. For the same molecule, the result in data set [21], in [25], in [26] and in data set [27] was inactive. Further, the 50% effective concentration (EC50) in data set [2] came to 1.2 µM; in [10], 6.4 µM; in data set [20], 1.8 µM; in [23], 0.1 µM; in [28], 0.11 µM. The selectivity ratio in data set [7] is 7.9; in [8], 381; in [16], 6.7; in data set [18], 420; in data set [22] (read-out: Ratio CC50/EC50) it was more than 16. Further, the CC50 in [17] was more than 100 µM; in [24], not below 9.5 µM.

Take `Nc1nccc2c1ncn2[C@H]1C(F)=C[C@H](O)[C@@H]1O`: the result in [1], in [5], in data set [6], in data set [9], in data set [11] and in data set [12] was inactive. The result in [29], in [30], in data set [32], in data set [19], in [21] and in data set [34] was inactive. Besides, the result in data set [26] and in [27] was inactive. Besides, the selectivity ratio in data set [31] was more than 7. Besides, the EC50 in [33] is 23 µM. For the same molecule, the CC50 in data set [35] was more than 150 µM.

`Nc1ccn([C@@H]2O[C@H](CO)[C@@H](O)[C@H]2F)c(=O)n1` yielded an EC50 in data set [2] of 1.1 µM. In addition, in data set [7], the selectivity ratio was more than 91.

On to `NC(=O)c1nc(F)cnc1O` [FAVIPIRAVIR], for which the selectivity ratio in [8] was 15; in data set [18], more than 6.5. Moreover, the EC50 amounted to 155 µM in data set [23] and 66 µM in data set [28]. In addition, in [24], the CC50 was more than 1000 µM.

With `Nc1ncc(Br)c2c1ncn2[C@H]1C(F)=C[C@H](O)[C@@H]1O`, the outcome in data set [1], in [5], in data set [6], in data set [9], in data set [11] and in data set [12] was inactive. Besides, the outcome in [29], in [30], in data set [32], in [19], in data set [21] and in data set [34] was inactive. The result in [26] and in [27] was inactive. Moreover, the selectivity ratio in data set [31] is more than 4. Also, the EC50 in data set [33] stood at 34.5 µM. In addition, the concentration for an effect of 90% (EC90) in [33] amounted to 145 µM. In [35], this molecule showed a CC50 of more than 150 µM.

In [10], `C[C@@]1(O)[C@H](O)[C@@H](CO)O[C@H]1n1ccc(N)nc1=O` came in with an EC50 of 6.4 µM. This molecule gave a CC50 in data set [17] of more than 300 µM. Further, the selectivity ratio in data set [22] is more than 47.
